#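 Results reflect a 48-hour exposure of cells in 96-well plates to compound at five concentrations. The concentration for 50% growth inhibition is given as GI50.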 The source made the active and inactive calls. Cut-off read from the data, not from the text of the source: active = GI50 up to about 1.1 µM and inactive = higher.
# What was measured:
# Assay in all cases: NCI tumour cell line growth inhibition, 48 h
# XF498 = test system: XF498
# DMS-273 = test system: DMS-273
# DLD-1 = test system: DLD-1
# M19-MEL = test system: M19-MEL
# SNB-78 = test system: SNB-78
# HOP-18 = test system: HOP-18
# DMS-114 = test system: DMS-114
# LXFL 529 = test system: LXFL 529
# RXF 631 = test system: RXF 631
SMILES,GI50 (XF498),GI50 (DMS-273),GI50 (DLD-1),GI50 (M19-MEL),GI50 (SNB-78),GI50 (HOP-18),GI50 (DMS-114),GI50 (LXFL 529),GI50 (RXF 631)
CCC(=O)OC1CCn2c1nc1c2C(=O)C(C)=C(NC(C)=O)C1=N (configuration not stated),2.65 µM (inactive),1.67 µM (inactive),1.42 µM (inactive),0.186 µM (active),2.6 µM (inactive),1.8 µM (inactive),1.5 µM (inactive),–,–
Cn1cnc([N+](=O)[O-])c1Sc1nccn1-c1cccc2ccccc12,16.6 µM (inactive),25.2 µM (inactive),24.2 µM (inactive),25.7 µM (inactive),24.7 µM (inactive),2.52 µM (inactive),22 µM (inactive),18.5 µM (inactive),22.3 µM (inactive)
CCN(CC)C(=S)SCC(=O)Nc1nc2c(s1)CCCC2,18.7 µM (inactive),88.5 µM (inactive),94 µM (inactive),52.7 µM (inactive),> 100 µM (inactive),–,67.8 µM (inactive),47.2 µM (inactive),–
Cn1cc2ccccc2c1-c1nc(F)nc(OCC(=O)[C@H]2CCC3[C@@H]4CCC5=CC(=O)CC[C@]5(C)C4[C@@H](O)C[C@@]32C)n1 (some centres not stated),8.65 µM (inactive),15.6 µM (inactive),8.89 µM (inactive),4.34 µM (inactive),13.2 µM (inactive),15.5 µM (inactive),7.52 µM (inactive),3.72 µM (inactive),2.33 µM (inactive)
O=C1CC[C@@H](S(=O)(=O)c2ccccc2)[C@H](/C=C/c2ccccc2)O1,< 0.01 µM (active),–,–,> 100 µM (inactive),–,> 100 µM (inactive),> 100 µM (inactive),> 100 µM (inactive),–
CN(C)CCS/C(=N\c1ccccc1)N1C=COC=C1,31.2 µM (inactive),18.4 µM (inactive),17.4 µM (inactive),17.5 µM (inactive),26.9 µM (inactive),59.8 µM (inactive),14.6 µM (inactive),16.4 µM (inactive),–
COc1ccc2occ(CCC(=O)O)c2c1,> 100 µM (inactive),> 100 µM (inactive),> 100 µM (inactive),> 100 µM (inactive),> 100 µM (inactive),> 100 µM (inactive),> 100 µM (inactive),> 100 µM (inactive),–
NC(=O)c1ccccc1NC(=O)C(=O)C(C(=O)c1ccc(Cl)c(Cl)c1)C1OC(=O)c2ccccc21 (configuration not stated),> 100 µM (inactive),36.2 µM (inactive),43.3 µM (inactive),–,39.2 µM (inactive),33.5 µM (inactive),–,29.9 µM (inactive),–
O=C(/C=C/c1ccc([N+](=O)[O-])o1)N1CCN(Cc2ccccc2)CC1,16.7 µM (inactive),9.82 µM (inactive),5.96 µM (inactive),6.43 µM (inactive),17.1 µM (inactive),22.6 µM (inactive),12.2 µM (inactive),6.56 µM (inactive),–
O=C(Cn1ccnc1[N+](=O)[O-])c1ccccc1,> 100 µM (inactive),> 100 µM (inactive),> 100 µM (inactive),> 100 µM (inactive),–,–,–,> 100 µM (inactive),–
Nc1nc2c(c(=O)[nH]1)NC(CO)CN2 (configuration not stated),84.9 µM (inactive),> 100 µM (inactive),> 100 µM (inactive),63.2 µM (inactive),–,> 100 µM (inactive),66.8 µM (inactive),–,–
Cc1ccc(C)c(NC(=O)CCc2n[nH]c(=S)o2)c1,> 100 µM (inactive),> 100 µM (inactive),> 100 µM (inactive),> 100 µM (inactive),> 100 µM (inactive),> 100 µM (inactive),> 100 µM (inactive),> 100 µM (inactive),> 100 µM (inactive)
